“Also recorded” adds a separate entry of the source.
Test: Dissolution of Retinol in water
Assay type: physicochemical
Settings: without TPGS
Description: All attempts to dissolve Retinol in water were unsuccessful except when using a micellar formulation with TPGS, as per the method described in Example 1.
Retinol. No research was undertaken on Objective 2 because Retinol is insoluble in water.

solubility in water: insoluble; also recorded: unsuccessful
SMILES: CC1=C(/C=C/C(C)=C/C=C/C(C)=C/CO)C(C)(C)CCC1 [Retinol]
